Laboratory results reported in patent publication US7947466B2 (priority 2003, dated 2011).
Entries after “also recorded” stand apart in the source; their conditions may differ. Like-named read-outs stand apart in the source and are kept apart here.

Key:
Aplysia AChBP [1] = target: T1, Aplysia AChBP (Aplysia californica, UniProt Q8WSF8); assay: biochemical; type: binding
Lymnaea AChBP [2] = target: T2, Lymnaea AChBP (Lymnaea stagnalis, UniProt P58154); assay: biochemical; type: binding
Aplysia AChBP [3] = target: T1, Aplysia AChBP; assay: biochemical; type: binding; remark: listed apart in the source
Lymnaea AChBP [4] = target: T2, Lymnaea AChBP; assay: biochemical; type: binding; remark: listed apart in the source
Target sequence in this assay (P58154 20-229 limits assumed): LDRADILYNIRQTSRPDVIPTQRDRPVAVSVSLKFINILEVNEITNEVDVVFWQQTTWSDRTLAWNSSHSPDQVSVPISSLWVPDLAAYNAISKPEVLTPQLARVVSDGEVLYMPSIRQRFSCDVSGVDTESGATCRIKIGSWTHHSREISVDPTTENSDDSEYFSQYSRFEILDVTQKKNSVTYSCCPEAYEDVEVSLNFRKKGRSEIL

Lymnaea AChBP [5] = target: T2, Lymnaea AChBP; details: read-out: Lymnaea Kd; cited from earlier work
Target sequence in this assay (P58154 20-229 limits assumed): as above

Lymnaea AChBP [6] = target: T2, Lymnaea AChBP; type: binding
Target sequence in this assay (P58154 20-229 limits assumed): as above

T1 sequence (Q8WSF8 18-236): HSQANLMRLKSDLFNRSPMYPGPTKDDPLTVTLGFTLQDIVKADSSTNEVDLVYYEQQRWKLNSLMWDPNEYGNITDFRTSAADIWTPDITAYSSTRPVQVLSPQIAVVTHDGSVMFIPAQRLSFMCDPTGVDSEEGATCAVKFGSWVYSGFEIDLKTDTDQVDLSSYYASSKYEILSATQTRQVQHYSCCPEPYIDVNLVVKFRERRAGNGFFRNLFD

Molecule: CC(=O)OCC[N+](C)(C)C [Acetylcholine]
- Kd (Aplysia AChBP [1]): 33000 nM

Molecule: CN1CCCC1c1cccnc1 (single isomer, unassigned; (-)) [(−)-Nicotine]
- k1 (Lymnaea AChBP [2]): 1.5e+08 M⁻¹ s⁻¹
- k1 Lymnaea (Lymnaea AChBP [2]): 1.5e+08 M⁻¹ s⁻¹
- k−1 (Lymnaea AChBP [2]): 5.7 s⁻¹
- k−1 Lymnaea (Lymnaea AChBP [2]): 5.7 s⁻¹
- k1 Aplysia (Aplysia AChBP [3]): 2.3e+08 M⁻¹ s⁻¹
- k−1 Aplysia (Aplysia AChBP [3]): 49 s⁻¹
- Kd (Aplysia AChBP [1]): 245 nM
- change of tryptophan fluorescence on binding, A-AChBP (Aplysia AChBP [1]): markedly quenched fluorescence
- change of tryptophan fluorescence on binding, L-AChBP (Lymnaea AChBP [4]): markedly quenched fluorescence

Molecule: 5-Dimethylaminonaphthylsulfonamidohexyltrimethylammonium [Dansyl-C6-choline]
- k1 (Lymnaea AChBP [2]): 1.3e+08 M⁻¹ s⁻¹
- k−1 (Lymnaea AChBP [2]): 7.6 s⁻¹
- Kd (Lymnaea AChBP [2]; read-out: Kd): 58 nM
- Kd Ratio L/A (Aplysia AChBP [3]): 0.069
- Kd (Aplysia AChBP [1]; read-out: Aplysia Kd): 1600 nM
- Kd (Lymnaea AChBP [5]): 110 nM

Molecule: α-Bungarotoxin
- k1 (Lymnaea AChBP [2]): 0.0097 ± 0.002 ×10^8 M^−1 s^−1
- k1 Lymnaea (Lymnaea AChBP [2]): 900000 M⁻¹ s⁻¹
- k−1 (Lymnaea AChBP [2]): 0.0017 ± 0.0003 s⁻¹
- k−1 Lymnaea (Lymnaea AChBP [2]): 0.001 s⁻¹
- rate of association slower than for epibatidine (Lymnaea AChBP [2]): ~200 fold
- unimolecular step k2 (slow phase limiting value) (Lymnaea AChBP [2]): 0.34 s⁻¹
- Kd (Lymnaea AChBP [2]; read-out: Kd): 1.8 nM
- Kd Ratio L/A (Aplysia AChBP [3]): 0.0071
- k1 Aplysia (Aplysia AChBP [3]): 1e+06 M⁻¹ s⁻¹
- k−1 Aplysia (Aplysia AChBP [3]): 0.32 s⁻¹
- lower affinity for A-AChBP than for L-AChBP (Aplysia AChBP [1]): 100 fold
- Kd (Aplysia AChBP [1]; read-out: Aplysia Kd): 250 nM
- quenching of the intrinsic tryptophan fluorescence (Lymnaea AChBP [6]): 15-20%
- Kd (Lymnaea AChBP [5]): 1.8 nM

Molecule: CC[N+](CC)(CC)CCOc1cccc(OCC[N+](CC)(CC)CC)c1OCC[N+](CC)(CC)CC [Gallamine]
- Kd (Lymnaea AChBP [2]): 140 nM
- change of tryptophan fluorescence on binding, Lymnaea AChBP (Example 1) (Lymnaea AChBP [2]): enhancement of the tryptophan fluorescence; also recorded: increase in fluorescence
- k1 (Lymnaea AChBP [2]): 2.5 ± 0.14 ×10^8 M^−1 s^−1
- k1 Lymnaea (Lymnaea AChBP [2]): 2.5e+08 M⁻¹ s⁻¹
- k−1 (Lymnaea AChBP [2]): 36 ± 6.5 s⁻¹
- k−1 Lymnaea (Lymnaea AChBP [2]): 36 s⁻¹
- Kd Ratio L/A (Aplysia AChBP [3]): 1.2
- k1 Aplysia (Aplysia AChBP [3]): 2.5e+08 M⁻¹ s⁻¹
- k−1 Aplysia (Aplysia AChBP [3]): 65 s⁻¹
- Kd (Aplysia AChBP [1]): 120 nM
- change of tryptophan fluorescence on binding, A-AChBP (Aplysia AChBP [1]): enhanced fluorescence emission
- change of tryptophan fluorescence on binding, L-AChBP (Lymnaea AChBP [4]): enhanced tryptophan fluorescence

Molecule: CCN1C[C@]2(COC(=O)c3ccccc3N3C(=O)C[C@H](C)C3=O)CC[C@H](OC)[C@@]34[C@@H]5C[C@H]6[C@H](OC)[C@@H]5[C@](O)(C[C@@H]6OC)[C@@](O)([C@@H](OC)[C@H]23)[C@@H]14 [Methyllycaconitine]
- k1 Lymnaea (Lymnaea AChBP [2]): 1.3e+07 M⁻¹ s⁻¹
- k−1 Lymnaea (Lymnaea AChBP [2]): 0.005 s⁻¹
- Kd (Aplysia AChBP [3]): 2.8 nM
- Kd Ratio L/A (Aplysia AChBP [3]): 0.14
- k1 Aplysia (Aplysia AChBP [3]): 4.4e+07 M⁻¹ s⁻¹
- k−1 Aplysia (Aplysia AChBP [3]): 0.12 s⁻¹
- Kd (Lymnaea AChBP [5]): 0.41 nM

Molecule: 5-Dimethylaminonaphthylsulfonamidoethyltrimethylammonium [Dansyl-C2-choline]
- k1 (Lymnaea AChBP [2]): 2.1e+08 M⁻¹ s⁻¹
- k−1 (Lymnaea AChBP [2]): 2.9 s⁻¹
- Kd (Lymnaea AChBP [2]; read-out: Kd): 14 nM

Molecule: C[N+](C)(C)CCCCCCCCCC[N+](C)(C)C [Decamethonium]
- Kd (Lymnaea AChBP [2]): 380 nM
- k1 (Lymnaea AChBP [2]): 3.2 ± 0.17 ×10^8 M^−1 s^−1
- k−1 (Lymnaea AChBP [2]): 120 ± 17 s⁻¹

Molecule: C[N+](C)(C)CCOC(N)=O [Carbachol]
- Kd Ratio L/A (Aplysia AChBP [3]): 0.023
- Kd (Aplysia AChBP [1]): 240000 nM
- change of tryptophan fluorescence on binding, A-AChBP (Aplysia AChBP [1]): enhanced fluorescence emission
- Kd (Lymnaea AChBP [4]): 5600 nM

Molecule: COc1cc2c3cc1Oc1cc(ccc1O)C[C@@H]1c4c(cc(OC)c(O)c4Oc4ccc(cc4)C[C@@H]3N(C)CC2)CC[N+]1(C)C [d-Tubocurarine]
- k1 (Lymnaea AChBP [2]): 2e+08 M⁻¹ s⁻¹
- k−1 (Lymnaea AChBP [2]): 30 s⁻¹
- Kd (Lymnaea AChBP [2]; read-out: Kd): 150 nM

Molecule: O=C1C[C@@H]2OCC=C3CN4CC[C@]56c7ccccc7N1[C@H]5[C@H]2[C@H]3C[C@H]46 [Strychnine]
- Kd (Lymnaea AChBP [2]): 23 nM
- Kd (Aplysia AChBP [3]): 15 nM

Molecule: Clc1ccc(C2CC3CCC2N3)cn1 (stereo not shown) [Epibatidine]
- Kd (Lymnaea AChBP [2]): 0.16 nM
- k1 (Lymnaea AChBP [2]): 1.7 ± 0.26 ×10^8 M^−1 s^−1
- k1 Lymnaea (Lymnaea AChBP [2]): 1.7e+08 M⁻¹ s⁻¹
- k−1 (Lymnaea AChBP [2]): 0.027 ± 0.037 s⁻¹
- k−1 Lymnaea (Lymnaea AChBP [2]): 0.027 s⁻¹
- Kd (Aplysia AChBP [3]): 14 nM
- Kd Ratio L/A (Aplysia AChBP [3]): 0.011
- k1 Aplysia (Aplysia AChBP [3]): 2.5e+08 M⁻¹ s⁻¹
- k−1 Aplysia (Aplysia AChBP [3]): 3.4 s⁻¹
- change of tryptophan fluorescence on binding, A-AChBP (Aplysia AChBP [1]): markedly quenched fluorescence
- change of tryptophan fluorescence on binding, L-AChBP (Lymnaea AChBP [4]): markedly quenched fluorescence
- quenching of the intrinsic tryptophan fluorescence (Lymnaea AChBP [6]): about 50%

B1: α-Cobratoxin: α-neurotoxin, peptide toxin from elapid venom (protein)
chain: IRCFITPDITSKDCPNGHVCYTKTWCDAFCSIRGKRVDLGCAATCPTVKTGVDIQCCSTDNCNPFPTRKRP
- k1 (Lymnaea AChBP [2]): 3.3e+06 M⁻¹ s⁻¹
- k−1 (Lymnaea AChBP [2]): 0.011 s⁻¹
- Kd (Lymnaea AChBP [2]; read-out: Kd): 3.2 nM
